Test results reported in patent US10683553B2, “Method for determining sensitivity to simultaneous inhibitor against PARP and Tankyrase” (THE ASAN FOUNDATION, priority 2015, dated 2020).

Tests used:
Assay in all cases: Trypan blue staining apoptosis assay
Type in all cases: cell-based
[1] = tested on: RKO human colon cancer cell line; conditions: RKO (p53 WT/LIG4 MT); 25 μM and 50 μM, 48 hours
From the text: (§1) In order to analyze the degree of apoptosis of Compound A, which is a novel PARP/Tankyrase simultaneous inhibitor according to a p53 genotype and LIG4 genotype, the present inventors treated a novel PARP/Tankyrase simultaneous inhibitor, Compound A, and a competitive drug PARP inhibitor, olaparib, in RKO, LoVo human colon cancer cell line in which the p53 gene is a normal type and the LIG4 gene is a mutant type and an SW620 human colon cancer cell line in which the p53 gene is a mutant type and the LIG4 gene is a normal type. The number of cells was measured by trypan blue staining assay to confirm the degree of apoptosis. The conditions and methods of the experiment were as follows: RKO, LoVo human colon cancer cell line in which the p53 gene is a normal type and the LIG4 gene is a mutant type and the SW620 human colon cancer cell line in which the p53 gene is a mutant type and the LIG4 gene is a normal type were cultured in RPMI1640 (10% FBS, 1% penicillin/streptomycin) and cultured in a 60 mm plate at 1×10^5 per well for 24 hours at 37° C. Compound A, which is a novel PARP/Tankyrase simultaneous inhibitor, and olaparib, which is a competitive drug PARP inhibitor, were treated with each of 25 μM and 50 μM and were cultured for 48 hours. The number of cells was measured by trypan blue staining assay to confirm the degree of apoptosis.
In order to analyze the degree of apoptosis of Compound A, which is a novel PARP/Tankyrase simultaneous inhibitor, according to the p53 genotype and an LIG4 genotype, the present inventors treated Compounds A and B, which are novel PARP/Tankyrase simultaneous inhibitors, in the RKO and LoVo human colon cancer cell lines in which the p53 gene is a normal type and an LIG4 gene is a mutant type. Then, the number of cells was measured by trypan blue staining assay to confirm the degree of apoptosis. The RKO and LoVo human colon cancer cell lines were cultured under the same conditions as in Example 5. Compounds A and B, which are novel PARP/Tankyrase simultaneous inhibitors, were treated with 25 μM and 50 μM, respectively, for 48 hours. After 48 hours of culturing, the number of cells was measured by trypan blue staining assay to confirm the degree of apoptosis. […]

[2] = tested on: HCT8 human colon cancer cell line; conditions: HCT8 (p53 WT/LIG4 WT); 25 μM and 50 μM, 48 hours
From the text: (§2) In order to analyze the degree of apoptosis of Compounds A and B, which are novel PARP/Tankyrase simultaneous inhibitors, in a cell line RKO in which the p53 genotype is a normal type and an LIG4 genotype is a mutant type, a cell line SW620 in which the p53 genotype is a mutant type and an LIG4 genotype is a normal type, a cell line HCT8 in which the p53 genotype and an LIG4 genotype are normal, and a cell line KM12C in which the p53 genotype and an LIG4 genotype are mutant, the human colon cancer cell lines of RKO, HCT, SW620 and KM12C with different p53 genotype and LIG4 genotype were cultured in RPMI1640 (10% FBS, 1% penicillin/streptomycin) and cultured in a 60 mm plate at 1×10^5 per well for 24 hours at 37° C. Compounds A and B, which are novel PARP/Tankyrase simultaneous inhibitors, and olaparib, which is a competitive drug PARP inhibitor, and NVP-TNKS656, which is a Tankyrase inhibitor, were treated with each of 25 μM and 50 μM. After 48 hours of culturing, the number of cells was measured by trypan blue staining assay to confirm the degree of apoptosis.

[3] = tested on: KM12C human colon cancer cell line; conditions: KM12C (p53 MT/LIG4 MT); 25 μM and 50 μM, 48 hours
From the text: as §2

[4] = tested on: SW620 human colon cancer cell line; conditions: SW620 (p53 MT/LIG4 WT); 25 μM and 50 μM, 48 hours
From the text: as §1, §2

Compound: COc1ccc(C(=O)C2CCN(CC(=O)N(Cc3nc4c(c(=O)[nH]3)COCC4)CC3CC3)CC2)cc1 [NVP-TNKS656, reference compound]
- degree of apoptosis (trypan blue cell count) [1]: no change in apoptosis
- degree of apoptosis (trypan blue cell count) [2]: No apoptosis occurred
- degree of apoptosis (trypan blue cell count) [3]: No apoptosis occurred
- degree of apoptosis (trypan blue cell count) [4]: No apoptosis occurred
